Article PMC9636582 (The Journal of Biological Chemistry, 2022)

Legend:
GAL4-PPARα LBD = biological target: T1, GAL4-PPARα LBD (Homo sapiens, UniProt Q07869); experiment: GAL4-PPARα LBD luciferase reporter assay in HEK293 cells; format: cell-based; conditions: for ligand-induced activation of PPARα (in words): 100 μM fatty acids, Fig. 1B
T1 construct: chimeric receptors containing the LBD of various NRs; expressed in transfected cells; host or cells: HEK293
T1 sequence (Q07869 239-466 limits assumed): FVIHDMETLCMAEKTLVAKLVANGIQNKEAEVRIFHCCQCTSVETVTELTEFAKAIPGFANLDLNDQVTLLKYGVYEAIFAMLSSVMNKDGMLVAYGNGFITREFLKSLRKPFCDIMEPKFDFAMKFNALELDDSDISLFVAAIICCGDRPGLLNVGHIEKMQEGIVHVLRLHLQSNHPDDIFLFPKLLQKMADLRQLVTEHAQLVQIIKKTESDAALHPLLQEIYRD

GAL4-PPARδ LBD = biological target: T2, GAL4-PPARδ LBD (Homo sapiens, UniProt Q03181); experiment: GAL4-PPARδ LBD luciferase reporter assay in HEK293 cells; format: cell-based; conditions: for PPARδ activation (in words): 100 μM fatty acids, Fig. 1B
T2 construct: chimeric receptors containing the LBD of various NRs; expressed in transfected cells; host or cells: HEK293
T2 sequence (Q03181 211-439 limits assumed): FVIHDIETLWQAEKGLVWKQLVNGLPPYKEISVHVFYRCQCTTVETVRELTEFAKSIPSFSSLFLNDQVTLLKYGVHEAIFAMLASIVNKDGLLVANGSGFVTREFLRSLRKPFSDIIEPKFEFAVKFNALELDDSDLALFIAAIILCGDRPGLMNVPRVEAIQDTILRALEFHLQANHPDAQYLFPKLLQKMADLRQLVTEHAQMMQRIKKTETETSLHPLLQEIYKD

[1] = tested on: human intestinal organoids; experiment: PPARδ target gene mRNA expression in human intestinal organoids (RT-qPCR); format: cell-based; conditions: 1 μM GW1516 or 30 μM fatty acids for 24 h
VP16-PPARα / GAL4-SRC-1 = biological target: T3, VP16-PPARα / GAL4-SRC-1 (Homo sapiens, UniProt Q07869); experiment: mammalian two-hybrid assay, VP16-PPARα and coactivator GAL4-SRC-1; format: cell-based; conditions: 30 μM fatty acids, 1 μM GW7647, HEK293 cells, Fig. 3B
T3 construct: expressed in transfected cells; host or cells: HEK293
T3 sequence (Q07869 1-468): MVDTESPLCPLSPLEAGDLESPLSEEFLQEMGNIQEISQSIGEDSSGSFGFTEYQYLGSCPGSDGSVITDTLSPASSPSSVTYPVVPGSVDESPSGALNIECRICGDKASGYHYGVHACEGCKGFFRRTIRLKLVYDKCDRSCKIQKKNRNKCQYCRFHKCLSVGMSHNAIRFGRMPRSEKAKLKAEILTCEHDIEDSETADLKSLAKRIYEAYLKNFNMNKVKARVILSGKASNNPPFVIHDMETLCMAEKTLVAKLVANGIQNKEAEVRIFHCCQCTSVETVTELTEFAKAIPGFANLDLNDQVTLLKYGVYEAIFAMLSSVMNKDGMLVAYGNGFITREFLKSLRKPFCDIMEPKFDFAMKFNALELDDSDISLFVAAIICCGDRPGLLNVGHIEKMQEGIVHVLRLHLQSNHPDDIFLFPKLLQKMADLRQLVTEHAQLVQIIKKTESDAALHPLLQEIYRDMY
T3 sequence (Q15788 595-771 partner limits assumed): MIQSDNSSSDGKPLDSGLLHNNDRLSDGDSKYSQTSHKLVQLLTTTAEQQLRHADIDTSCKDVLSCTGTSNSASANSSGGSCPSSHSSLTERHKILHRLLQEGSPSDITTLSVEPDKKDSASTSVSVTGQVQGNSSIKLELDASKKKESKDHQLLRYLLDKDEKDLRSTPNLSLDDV

VP16-PPARδ / GAL4-SRC-1 = biological target: T4, VP16-PPARδ / GAL4-SRC-1 (Homo sapiens, UniProt Q03181); experiment: mammalian two-hybrid assay, VP16-PPARδ and coactivator GAL4-SRC-1; format: cell-based; conditions: 30 μM fatty acids, 100 nM GW1516, HEK293 cells, Fig. 3A
T4 construct: expressed in transfected cells; host or cells: HEK293
T4 sequence (Q03181 1-441): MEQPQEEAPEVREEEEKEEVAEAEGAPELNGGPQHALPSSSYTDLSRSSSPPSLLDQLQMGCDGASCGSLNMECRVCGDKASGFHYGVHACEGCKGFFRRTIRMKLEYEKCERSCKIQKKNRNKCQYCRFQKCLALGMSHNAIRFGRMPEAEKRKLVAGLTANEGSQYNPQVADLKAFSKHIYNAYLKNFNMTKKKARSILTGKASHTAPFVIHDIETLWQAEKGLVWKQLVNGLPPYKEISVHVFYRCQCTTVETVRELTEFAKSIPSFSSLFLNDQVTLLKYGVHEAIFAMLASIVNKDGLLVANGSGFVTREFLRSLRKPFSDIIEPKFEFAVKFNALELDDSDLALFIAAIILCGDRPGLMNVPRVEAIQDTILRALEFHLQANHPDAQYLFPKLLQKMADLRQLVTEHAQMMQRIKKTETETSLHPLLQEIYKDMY
T4 sequence (Q15788 595-771 partner limits assumed): T3 sequence (Q15788 595-771 partner limits assumed)

[2] = biological target: T5, recombinant human PPARδ LBD protein (Homo sapiens, UniProt Q03181); experiment: [14C] DHA competitive ligand-binding assay; conditions: 100 nM [14C] DHA, 1 μM nonlabeled fatty acids, overnight at 4 °C
T5 construct: Human PPARδ LBD (140–442) construct was cloned into a pGEX-4T1 vector; GST (N, cleaved yes); made in house; host or cells: Escherichia coli BL21 (DE3) pLys
T5 sequence (Q03181 140-441 limits assumed): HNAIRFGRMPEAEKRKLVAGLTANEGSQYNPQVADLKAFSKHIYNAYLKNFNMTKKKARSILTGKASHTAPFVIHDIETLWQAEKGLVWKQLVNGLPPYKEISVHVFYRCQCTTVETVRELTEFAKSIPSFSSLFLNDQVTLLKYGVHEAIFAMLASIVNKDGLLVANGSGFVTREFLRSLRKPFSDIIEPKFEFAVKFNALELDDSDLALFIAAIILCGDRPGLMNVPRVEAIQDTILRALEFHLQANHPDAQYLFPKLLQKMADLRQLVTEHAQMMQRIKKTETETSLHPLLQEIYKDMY
Description: To identify the mechanism underlying the activation of PPARδ by GLA-derived fatty acids, we performed a [^14C] DHA competitive ligand-binding assay describing the displacement of ligands from receptors with recombinant human PPARδ LBD protein produced by a bacterial expression system (Figs. 4, A and B and S2). PPARδ LBD or glutathione-S-transferase (GST) recombinant protein was incubated with both [^14C] […] A competitive inhibition of [^14C] DHA binding was analyzed as a direct binding to PPARδ LBD (see Experimental procedures). […] DHA binding to PPARδ LBD competitively (Fig. 4C).
Human PPARδ LBD (140–442) construct was cloned into a pGEX-4T1 vector (GE Healthcare Life Sciences) at the restriction enzyme site of SmaI and XhoI. The protein was expressed in Eschericia coli BL21 (DE3) pLys cells (Novagen) as a C-terminal fusion to a GST tag with a thrombin cleavage site. A single colony was cultured in 2 ml of LB media supplemented with 20 μg/ml of ampicillin and 30 μg/ml of chloramphenicol at 37 °C and 200 rpm for 18 h. The preculture was then transferred to 1 l of LB media until the A600 reached 0.6 to 0.8. IPTG was added to produce a final concentration of 0.4 mM, and expression was continued at 24 °C and 150 rpm for 18 h. Cells were collected using centrifugation, and pellets were resuspended in lysis buffer comprising 50 mM Tris–HCl (pH 7.5), 150 mM NaCl, 5 mM DTT, 1 mM EDTA, and 10% glycerol before sonication was performed. The supernatant was then collected using centrifugation at 100,000g and 4 °C for 70 min, after which it was loaded onto GST Accept (nacalai tesque) and equilibrated using the lysis buffer. Subsequently, the column was washed using five column volumes of the lysis buffer and thrombin cleavage buffer comprising 20 mM Tri–HCl (pH 8.4), 150 mM NaCl, 2.5 mM CaCl2, and 1 mM DTT, respectively. The GST tag was removed via digestion using biotinylated thrombin (Merck) for 18 h at 4 °C. The biotinylated thrombin was removed using Dynabeads M-280 streptavidin (Veritas). The purity of the target proteins was verified using SDS-PAGE.
A ligand-binding assay was performed as described previously with minor modifications ([72]). Briefly, purified recombinant human PPARδ LBD protein was incubated with 100 nM ([…]) [^14C] DHA in GP buffer (137 mM NaCl, 8.1 mM Na2HPO4, 2.68 mM KCl, 1.47 mM KH2PO4, 1% sodium azide, and 0.1% gelatin) overnight at 4 °C with or without various competitors (1 μM), including DHA and GLA-derived fatty acids. Unbound ligands were removed by adsorption to 3% dextran-coated charcoal, and the supernatant was collected. The PPARδ-bound [^14C] DHA was measured using a scintillation counter (PerkinElmer).

VP16-PPARα / GAL4-NCoR = biological target: T6, VP16-PPARα / GAL4-NCoR (Homo sapiens, UniProt Q07869); experiment: mammalian two-hybrid assay, VP16-PPARα and corepressor NCoR; format: cell-based; conditions: 30 μM fatty acids, HEK293 cells, Fig. 3D
T6 construct: expressed in transfected cells; host or cells: HEK293
T6 sequence (Q07869 1-468): T3 sequence (Q07869 1-468)

VP16-PPARδ / GAL4-NCoR = biological target: T7, VP16-PPARδ / GAL4-NCoR (Homo sapiens, UniProt Q03181); experiment: mammalian two-hybrid assay, VP16-PPARδ and corepressor NCoR; format: cell-based; conditions: 30 μM fatty acids, HEK293 cells, Fig. 3C
T7 construct: expressed in transfected cells; host or cells: HEK293
T7 sequence (Q03181 1-441): T4 sequence (Q03181 1-441)

full-length PPARδ = biological target: T8, full-length PPARδ (Homo sapiens, UniProt Q03181); experiment: full-length PPARδ PPRE luciferase reporter assay in HEK293 cells; format: cell-based; conditions: Fig. 1C
T8 construct: expressed in transfected cells; host or cells: HEK293
T8 sequence (Q03181 1-441): T4 sequence (Q03181 1-441)
Excerpt: Luciferase activities were normalized to β-galactosidase activities.

SMILES	ligand-induced activation of PPARα (in words) (GAL4-PPARα LBD)	PPARδ activation (in words) (GAL4-PPARδ LBD)	other results
CC/C=C\C/C=C\C/C=C\C/C=C\C/C=C\C/C=C\CCC(=O)O [DHA, docosahexaenoic acid, reference compound]			EC50 (GAL4-PPARα LBD; GAL4-PPARα LBD, calculated from luciferase activity with Quest Graph EC50 Calculator): 9.32 µM; EC50 (GAL4-PPARδ LBD; GAL4-PPARδ LBD, calculated from luciferase activity with Quest Graph EC50 Calculator): 44.6 µM
Cc1cc(SCc2sc(-c3ccc(C(F)(F)F)cc3)nc2C)ccc1OCC(=O)O [GW1516, reference compound]			expression of PPARδ target genes (CPT1A, HMGCS2, PDK4, ACSL1) [1]: upregulated the mRNA expression of target genes
CCCCCC(O)CC/C=C\CCCCCCCC(=O)O (centres unmarked) [HYD]	little or no effect	effective	
CCCCCC(O)CCC(O)CCCCCCCCC(=O)O (centres unmarked) [HYE]	little or no effect	effective	
CCCCCC(=O)CC/C=C\CCCCCCCC(=O)O [KetoD]	little or no effect	effective	
CC/C=C\CC(O)CC/C=C\CCCCCCCC(=O)O (centres unmarked) [αHYD]	little or no effect	effective	
CC/C=C\CC(O)CCC(O)CCCCCCCCC(=O)O (centres unmarked) [αHYE]	little or no effect		
CC/C=C\CC(=O)CC/C=C\CCCCCCCC(=O)O [αKetoD]	little or no effect		
CCCCCC(O)CCC(O)CC/C=C\CCCCC(=O)O (stereo not drawn) [γHYE, 10,13-dihydroxy-cis-6-octadecenoic acid]		more robust PPARδ activation than their original compound, GLA	recruitment of coactivator SRC-1 to PPARα (VP16-PPARα / GAL4-SRC-1): induced coactivator-recruitment; recruitment of coactivator SRC-1 to PPARδ (VP16-PPARδ / GAL4-SRC-1): induced coactivator-recruitment; competitive displacement of [14C] DHA binding to PPARδ LBD [2]: displaced [^14C] DHA binding to PPARδ LBD competitively; interaction between PPARα and corepressor NCoR (VP16-PPARα / GAL4-NCoR): reduced the interaction; interaction between PPARδ and corepressor NCoR (VP16-PPARδ / GAL4-NCoR): reduced the interaction; transactivation of full-length PPARδ (in words) (full-length PPARδ): activated PPARδ potently
